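Where inhibition never reached the appropriate level, the endpoint shown equals the highest concentration tested. Otherwise, values were interpolated linearly from a five-concentration, 48-hour dose response in 96-well plates. GI50 is the concentration that inhibits growth by half. TGI: concentration producing complete growth inhibition.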
Key:
Assay in all cases: DTP human tumour cell line panel, 48 h
MDA-MB-435 = test system: MDA-MB-435
M14 melanoma = test system: M14 melanoma
HOP-92 NSCLC = test system: HOP-92 NSCLC
CAKI-1 renal = test system: CAKI-1 renal
T-47D breast = test system: T-47D breast
SNB-19 CNS = test system: SNB-19 CNS
OVCAR-3 ovarian = test system: OVCAR-3 ovarian
MOLT-4 leukemia = test system: MOLT-4 leukemia
NCI-H226 lung = test system: NCI-H226 lung
SF-539 CNS = test system: SF-539 CNS
TK-10 renal = test system: TK-10 renal
MCF7 breast = test system: MCF7 breast
OVCAR-8 ovarian = test system: OVCAR-8 ovarian
786-0 renal = test system: 786-0 renal
SR leukemia = test system: SR leukemia
OVCAR-5 ovarian = test system: OVCAR-5 ovarian
DU-145 prostate = test system: DU-145 prostate
A549 NSCLC = test system: A549 NSCLC
SK-MEL-2 melanoma = test system: SK-MEL-2 melanoma
U251 CNS = test system: U251 CNS
KM12 colon = test system: KM12 colon
PC-3 prostate = test system: PC-3 prostate
CCRF-CEM leukemia = test system: CCRF-CEM leukemia
HT29 colon = test system: HT29 colon
SK-MEL-28 melanoma = test system: SK-MEL-28 melanoma
HS 578T breast = test system: HS 578T breast
MDA-MB-231 breast = test system: MDA-MB-231 breast
LOX IMVI melanoma = test system: LOX IMVI melanoma
RPMI-8226 leukemia = test system: RPMI-8226 leukemia
NCI-H522 lung = test system: NCI-H522 lung
MDA-MB-468 breast = test system: MDA-MB-468 breast
UO-31 renal = test system: UO-31 renal
SK-MEL-5 melanoma = test system: SK-MEL-5 melanoma
SN12C renal = test system: SN12C renal
NCI-H460 lung = test system: NCI-H460 lung
HCC-2998 colon = test system: HCC-2998 colon
HCT-15 colon = test system: HCT-15 colon
ACHN renal = test system: ACHN renal
HL-60(TB) leukemia = test system: HL-60(TB) leukemia
SF-268 CNS = test system: SF-268 CNS
A498 renal = test system: A498 renal
EKVX NSCLC = test system: EKVX NSCLC
IGROV1 ovarian = test system: IGROV1 ovarian
MALME-3M melanoma = test system: MALME-3M melanoma
UACC-62 melanoma = test system: UACC-62 melanoma
NCI-H23 lung = test system: NCI-H23 lung
UACC-257 melanoma = test system: UACC-257 melanoma
COLO 205 colon = test system: COLO 205 colon
SK-OV-3 ovarian = test system: SK-OV-3 ovarian
OVCAR-4 ovarian = test system: OVCAR-4 ovarian
NCI/ADR-RES ovarian = test system: NCI/ADR-RES ovarian
SW-620 colon = test system: SW-620 colon
RXF 393 renal = test system: RXF 393 renal
BT-549 breast = test system: BT-549 breast
SF-295 CNS = test system: SF-295 CNS
K-562 leukemia = test system: K-562 leukemia
HOP-62 NSCLC = test system: HOP-62 NSCLC

SMILES: COc1ccc(C(=O)/C=C/c2ccc(Cl)c(Cl)c2)cc1S(N)(=O)=O
- GI50 (MDA-MB-435): 2420 nM
- TGI (MDA-MB-435): 7260 nM
- GI50 (M14 melanoma): 1860 nM
- TGI (M14 melanoma): 3900 nM
- GI50 (HOP-92 NSCLC): 2290 nM
- TGI (HOP-92 NSCLC): 7310 nM
- GI50 (CAKI-1 renal): 1750 nM
- TGI (CAKI-1 renal): 4190 nM
- GI50 (T-47D breast): 1970 nM
- TGI (T-47D breast): 5570 nM
- GI50 (SNB-19 CNS): 1880 nM
- TGI (SNB-19 CNS): 4210 nM
- GI50 (OVCAR-3 ovarian): 1190 nM
- TGI (OVCAR-3 ovarian): 2550 nM
- GI50 (MOLT-4 leukemia): 2350 nM
- TGI (MOLT-4 leukemia): 6750 nM
- GI50 (NCI-H226 lung): 3040 nM
- TGI (NCI-H226 lung): 13400 nM
- GI50 (SF-539 CNS): 1670 nM
- TGI (SF-539 CNS): 3250 nM
- GI50 (TK-10 renal): 2020 nM
- TGI (TK-10 renal): 5890 nM
- GI50 (MCF7 breast): 1050 nM
- TGI (MCF7 breast): 3160 nM
- GI50 (OVCAR-8 ovarian): 2000 nM
- TGI (OVCAR-8 ovarian): 5750 nM
- GI50 (786-0 renal): 1620 nM
- TGI (786-0 renal): 3110 nM
- GI50 (SR leukemia): 797 nM
- TGI (SR leukemia): 10200 nM
- GI50 (OVCAR-5 ovarian): 1600 nM
- TGI (OVCAR-5 ovarian): 3340 nM
- GI50 (DU-145 prostate): 3500 nM
- TGI (DU-145 prostate): 12800 nM
- GI50 (A549 NSCLC): 2170 nM
- TGI (A549 NSCLC): 10500 nM
- GI50 (SK-MEL-2 melanoma): 5660 nM
- TGI (SK-MEL-2 melanoma): 18600 nM
- GI50 (U251 CNS): 1410 nM
- TGI (U251 CNS): 2930 nM
- GI50 (KM12 colon): 888 nM
- TGI (KM12 colon): 2430 nM
- GI50 (PC-3 prostate): 1860 nM
- TGI (PC-3 prostate): 5070 nM
- GI50 (CCRF-CEM leukemia): 2700 nM
- TGI (CCRF-CEM leukemia): 7950 nM
- GI50 (HT29 colon): 1460 nM
- TGI (HT29 colon): 2770 nM
- GI50 (SK-MEL-28 melanoma): 1750 nM
- TGI (SK-MEL-28 melanoma): 3260 nM
- GI50 (HS 578T breast): 6010 nM
- TGI (HS 578T breast): 52000 nM
- GI50 (MDA-MB-231 breast): 1990 nM
- TGI (MDA-MB-231 breast): 4110 nM
- GI50 (LOX IMVI melanoma): 653 nM
- TGI (LOX IMVI melanoma): 1930 nM
- GI50 (RPMI-8226 leukemia): 1670 nM
- TGI (RPMI-8226 leukemia): 5960 nM
- GI50 (NCI-H522 lung): 1580 nM
- TGI (NCI-H522 lung): 3160 nM
- GI50 (MDA-MB-468 breast): 1470 nM
- TGI (MDA-MB-468 breast): 2980 nM
- GI50 (UO-31 renal): 1270 nM
- TGI (UO-31 renal): 2520 nM
- GI50 (SK-MEL-5 melanoma): 2450 nM
- TGI (SK-MEL-5 melanoma): 6890 nM
- GI50 (SN12C renal): 1390 nM
- TGI (SN12C renal): 2740 nM
- GI50 (NCI-H460 lung): 2720 nM
- TGI (NCI-H460 lung): 8220 nM
- GI50 (HCC-2998 colon): 1400 nM
- TGI (HCC-2998 colon): 2710 nM
- GI50 (HCT-15 colon): 496 nM
- TGI (HCT-15 colon): 1810 nM
- GI50 (ACHN renal): 1710 nM
- TGI (ACHN renal): 3110 nM
- GI50 (HL-60(TB) leukemia): 1880 nM
- TGI (HL-60(TB) leukemia): 6310 nM
- GI50 (SF-268 CNS): 2910 nM
- TGI (SF-268 CNS): 11900 nM
- GI50 (A498 renal): 8860 nM
- TGI (A498 renal): 22100 nM
- GI50 (EKVX NSCLC): 2120 nM
- TGI (EKVX NSCLC): 4730 nM
- GI50 (IGROV1 ovarian): 2000 nM
- TGI (IGROV1 ovarian): 5130 nM
- GI50 (MALME-3M melanoma): 2150 nM
- TGI (MALME-3M melanoma): 5170 nM
- GI50 (UACC-62 melanoma): 1480 nM
- TGI (UACC-62 melanoma): 2960 nM
- GI50 (NCI-H23 lung): 1750 nM
- TGI (NCI-H23 lung): 3430 nM
- GI50 (UACC-257 melanoma): 2500 nM
- TGI (UACC-257 melanoma): 8990 nM
- GI50 (COLO 205 colon): 1830 nM
- TGI (COLO 205 colon): 3430 nM
- GI50 (SK-OV-3 ovarian): 5530 nM
- TGI (SK-OV-3 ovarian): 18000 nM
- GI50 (OVCAR-4 ovarian): 1600 nM
- TGI (OVCAR-4 ovarian): 2970 nM
- GI50 (NCI/ADR-RES ovarian): 2250 nM
- TGI (NCI/ADR-RES ovarian): 5930 nM
- GI50 (SW-620 colon): 1340 nM
- TGI (SW-620 colon): 3520 nM
- GI50 (RXF 393 renal): 1740 nM
- TGI (RXF 393 renal): 3500 nM
- GI50 (BT-549 breast): 1630 nM
- TGI (BT-549 breast): 3330 nM
- GI50 (SF-295 CNS): 1740 nM
- TGI (SF-295 CNS): 3770 nM
- GI50 (K-562 leukemia): 2030 nM
- TGI (K-562 leukemia): 10800 nM
- GI50 (HOP-62 NSCLC): 1890 nM
- TGI (HOP-62 NSCLC): 4750 nM
